Experimental data taken from patent US20200222537A1, “BIOPHOTONIC COMPOSITIONS AND USES THEREOF” (KLOX TECHNOLOGIES LIMITED, priority 2016, published 2020).
In brackets after ≈: the same amount, converted by molar mass. Several values for one entry are separate records, joined by “and”; a condition that tells them apart may be missing. Identical values can stand only once.

Key:
[1] = Absorbance peak (Flex Station II); format: physicochemical
Protocol: (§1) The compounds were dissolved in the solvents and at the concentrations indicated in Table 2 and the absorbance and emission peaks were measured (measured using a Flex Station II, Model 384 by Molecular Devices Comp.).

[2] = physchem
[3] = Emission peak (Flex Station II); format: physicochemical
Protocol: as §1

[4] = Solubilization of chromophores in solvents; conditions: 1 M NaOH, aqueous buffer

## CCCCCCCCC[C@H](O)CC(=O)CCc1ccc(O)c(OC)c1 [10-Gingerol]
[1]; gel and liquid
  Absorbance peak (nm): 300 nm (gel and
[2]; organic solvent or mixture
  solubility: 10000 µg/mL (≈ 28.5 mM)

## O=C1c2cccc(O)c2C(=O)c2c(O)cc(CO)cc21 [Aloe-emodin]
[3]; ex. 460 nm, gel
  Emission peak (nm): nm, em. 600 nm
[3]; ex. 460 nm, liquid
  Emission peak (nm): ex. 460 nm, em. 588
[2]; organic solvent or mixture
  solubility: 10000 µg/mL (≈ 37 mM)

## COc1ccc2cc3[n+](cc2c1OC)CCc1cc2c(cc1-3)OCO2 [Berberine chloride hydrate]
[3]; ex. 340 nm, gel
  Emission peak (nm): ex. 340 nm, em. 538
[3]; ex. 430 nm, liquid
  Emission peak (nm): nm, em. 545 nm (liquid)
[3]; ex. 460 nm, gel + liquid
  Emission peak (nm): ex. 460 nm, em. 540

## O=C(/C=C/c1ccc(O)c(O)c1)OCCc1ccccc1 [Caffeic acid phenethyl ester (CAPE), Caffeic acid phenethyl ester]
[2]; organic solvent or mixture
  solubility: 10000 µg/mL (≈ 35.2 mM)

## O=C(O)/C=C/c1ccc(O)c(O)c1 [Caffeic acid]
[1]; liquid
  Absorbance peak (nm): 875 nm (liquid)

## COc1cc(/C=C/C(=O)/C=C(O)/C=C/c2ccc(O)c(OC)c2)ccc1O [Curcumin]
[1]; medium not stated
  Absorbance peak (nm): 440 nm
[3]; ex. 390 nm, liquid
  Emission peak (nm): em. 540 nm (liquid);
[3]; ex. 440 nm, gel
  Emission peak (nm): ex. 440 nm, em. 552
[3]; ex. 460 nm, gel
  Emission peak (nm): ex. 460 nm, em. 555
[3]; ex. 460 nm, liquid
  Emission peak (nm): nm, em. 544 nm
[2]; organic solvent or mixture
  solubility: 5000 µg/mL (≈ 13.6 mM)

## O=c1oc2c(O)c(O)cc3c(=O)oc4c(O)c(O)cc1c4c23 [Ellagic acid]
[1]; gel
  Absorbance peak (nm): (liquid); 370 nm (gel)
[3]; ex. 370 nm, gel
  Emission peak (nm): ex. 370 nm, em. 736

## O=C1C[C@@](O)(C(=O)O)C(C(=O)O)O1 (stereo partly drawn) [Garcinia acid]
[1]; gel and liquid
  Absorbance peak (nm): 300 nm (gel and
[2]; organic solvent or mixture
  solubility: 10000 µg/mL (≈ 52.6 mM)

## Cc1cc(O)c2c(=O)c3c(O)cc(O)c4c5c(O)cc(O)c6c(=O)c7c(O)cc(C)c8c1c2c(c34)c(c78)c65 [Hypericin]
[3]; ex. 345 nm, liquid
  Emission peak (nm): nm, em. 700 nm
[3]; ex. 460 nm, liquid
  Emission peak (nm): ex. 460 nm, em. 700
[3]; ex. 620 nm, liquid
  Emission peak (nm): em. 700 nm (liquid);
[4]
  solubility: 500 µg/mL (≈ 0.991 mM)

## CC(C)=CCC/C(C)=C/C=C/C(C)=C/C=C/C(C)=C/C=C/C=C(C)/C=C/C=C(C)/C=C/C=C(\C)CCC=C(C)C [Lycopene]
[1]; gel
  Absorbance peak (nm): 490 nm
[2]; organic solvent or mixture
  solubility: 1000 µg/mL (≈ 1.86 mM)

## C/C=C1/[C@H](O[C@@H]2O[C@H](CO)[C@@H](O)[C@H](O)[C@H]2O)OC=C(C(=O)OC)[C@H]1CC(=O)OCCc1ccc(O)c(O)c1 [Oleuropein]
[1]; gel and liquid
  Absorbance peak (nm): 325 nm (gel and
[2]; organic solvent or mixture
  solubility: 10000 µg/mL (≈ 18.5 mM)

## O=C(/C=C/C=C/c1ccc2c(c1)OCO2)N1CCCCC1 [Piperine]
[1]; medium not stated
  Absorbance peak (nm): 344 nm
[3]; ex. 340 nm, medium not stated
  Emission peak (nm): nm, em. 443 nm
[3]; ex. 460 nm, gel
  Emission peak (nm): ex. 460 nm, em. 634

## Oc1ccc(/C=C/c2cc(O)cc(O)c2)cc1 [Resveratrol]
[2]; organic solvent or mixture
  solubility: 10000 µg/mL (≈ 43.8 mM)

## C[n+]1cc2c3c(ccc2c2ccc4cc5c(cc4c21)OCO5)OCO3.[Cl-] [Sanguinarine chloride hydrate]
[3]; ex. 300 nm, liquid
  Emission peak (nm): em. 600 nm (liquid);
[3]; ex. 330 nm, gel
  Emission peak (nm): nm, em. 590 nm
[3]; ex. 405 nm, liquid
  Emission peak (nm): ex. 405 nm, em. 600
[3]; ex. 460 nm, gel
  Emission peak (nm): ex. 460 nm, em. 591
[3]; ex. 460 nm, liquid
  Emission peak (nm): nm, em. 600 nm
[2]; organic solvent or mixture
  solubility: 3330 µg/mL

## O=C(OC[C@H]1O[C@@H](OC(=O)c2cc(O)c(O)c(OC(=O)c3cc(O)c(O)c(O)c3)c2)[C@H](OC(=O)c2cc(O)c(O)c(OC(=O)c3cc(O)c(O)c(O)c3)c2)[C@@H](OC(=O)c2cc(O)c(O)c(OC(=O)c3cc(O)c(O)c(O)c3)c2)[C@@H]1OC(=O)c1cc(O)c(O)c(OC(=O)c2cc(O)c(O)c(O)c2)c1)c1cc(O)c(O)c(OC(=O)c2cc(O)c(O)c(O)c2)c1 [Tannic acid]
[2]; water
  solubility: 10000 µg/mL (≈ 5.88 mM)

## CC1=C(/C=C/C(C)=C/C=C/C(C)=C/C=C/C=C(C)/C=C/C=C(C)/C=C/C2=C(C)C[C@@H](O)CC2(C)C)C(C)(C)C[C@H](O)C1 [Zeaxanthin]
[1]; gel and liquid
  Absorbance peak (nm): 465 nm (gel and
[3]; ex. 300 nm, gel
  Emission peak (nm): 415 nm and 432 nm and 740 nm and 817 nm
[2]; organic solvent or mixture
  solubility: 2000 µg/mL (≈ 3.52 mM)
